Consider 63 compounds from ChEMBL document CHEMBL1122023, “Potential antitumor agents. 36. Quantitative relationships between experimental antitumor activity, toxicity, and structure for the general class of 9-anilinoacridine antitumor agents” (J Med Chem, 1982).

By pKa is commonly meant the negative logarithm of the acid dissociation constant.

This data set is described as follows: physchem.
Description: Ionization constant (pKa)
In turn, `COc1cc(NS(C)(=O)=O)ccc1Nc1c2ccccc2nc2c(C(=O)NCCO)cccc12` registered a pKa of 6.34. Regarding `CCC(=O)Nc1ccc2c(Nc3ccc(NS(C)(=O)=O)cc3)c3ccccc3nc2c1`, the pKa was 7.35. The figure for `COc1cc(NS(C)(=O)=O)ccc1Nc1c2ccc([N+](=O)[O-])cc2nc2cc([N+](=O)[O-])ccc12` is 3.82; for `COc1ccc2nc3cc(Cl)ccc3c(Nc3ccc(NS(C)(=O)=O)cc3OC)c2c1` it is 6.52. The result for `COc1cc(NS(C)(=O)=O)ccc1Nc1c2ccc(I)cc2nc2c(OC)cccc12` reads 6.74; that for `COc1cc(NS(C)(=O)=O)ccc1Nc1c2ccccc2nc2ccc([N+](=O)[O-])cc12`, 5.63; that for `COc1cc(NS(C)(=O)=O)ccc1Nc1c2cccc(C)c2nc2c(C)cccc12`, 6.91. `COc1cc(NS(C)(=O)=O)ccc1Nc1c2ccccc2nc2ccc(Cl)cc12` yielded a pKa of 6.69. As for `CS(=O)(=O)Nc1ccc(Nc2c3ccccc3nc3cc(Cl)c(N)cc23)cc1`, the pKa was 6.71. In turn, `CCc1cccc2c(Nc3ccc(NS(C)(=O)=O)cc3)c3ccccc3nc12` returned a pKa of 7.14. `COc1cc(NS(C)(=O)=O)ccc1Nc1c2ccc(Cl)cc2nc2cc(Cl)ccc12`: the pKa came to 6.18. On to `CS(=O)(=O)Nc1ccc(Nc2c3ccccc3nc3c(CO)cccc23)cc1`, for which the pKa was determined as 6.68. For the compound `COc1cc(NS(C)(=O)=O)ccc1Nc1c2ccccc2nc2cc(S(C)(=O)=O)ccc12`, the pKa was found to be 5.87. The compound `COc1ccc2[nH]c3ccccc3c(=Nc3ccc(NS(C)(=O)=O)cc3OC)c2c1` had a pKa of 7.1. The compound `CS(=O)(=O)Nc1ccc(Nc2c3ccccc3nc3ccccc23)cc1[N+](=O)[O-]` returned a pKa of 5.42.

In turn, `COc1cc(NS(C)(=O)=O)ccc1N=c1c2ccccc2[nH]c2ccc(C(N)=O)cc12` gave a pKa of 6.59. The figure for `CS(=O)(=O)Nc1ccc(Nc2c3ccc(Cl)cc3nc3ccc(N)cc23)cc1` is 6.56; for `COc1cc(NS(C)(=O)=O)ccc1Nc1c2ccc(C)cc2nc2cc([N+](=O)[O-])ccc12` it is 6.03; for `Cc1ccc2c(Nc3ccc(NS(C)(=O)=O)cc3)c3cccc(C)c3nc2c1` it is 7.46. `COc1ccccc1Nc1c2ccccc2nc2ccc(C(C)C)c(NS(C)(=O)=O)c12` had a pKa of 7.4. In turn, `CC(=O)Nc1ccc2c(Nc3ccc(NS(C)(=O)=O)cc3)c3ccc(NC(C)=O)cc3nc2c1` yielded a pKa of 7.55. Compound `COc1cc(NS(C)(=O)=O)ccc1Nc1c2ccccc2nc2c(C)c(Cl)ccc12` yielded a pKa of 6.71. The figure for `CCc1ccc2nc3ccccc3c(Nc3ccc(NS(C)(=O)=O)cc3OC)c2c1` is 7.46; for `COc1cc(NS(=O)(=O)OC)ccc1Nc1c2ccccc2nc2c(CCC(N)=O)cccc12` it is 7.15.

For `COS(=O)(=O)Nc1ccc(Nc2c3ccccc3nc3cc(Cl)ccc23)cc1`, the pKa came out at 6.57. The figure for `COc1cc(NS(C)(=O)=O)ccc1Nc1c2ccccc2nc2cccc(C)c12` is 6.71; for `COc1cc(NS(C)(=O)=O)ccc1Nc1c2ccccc2nc2c(OC3OC(CO)C(O)C(O)C3NC(C)=O)cccc12` (stereo not drawn) it is 6.35.

As for `COc1cc(NS(C)(=O)=O)ccc1Nc1c2ccc(I)cc2nc2c(OCC(O)CO)cccc12` (stereo not drawn), the pKa is 6.7. Take `CCCOc1cccc2c(Nc3ccc(NS(C)(=O)=O)cc3OC)c3ccccc3nc12`: the pKa stood at 7.36. The compound `COc1cc(NS(C)(=O)=O)ccc1Nc1c2ccc(C)cc2nc2c(C)cccc12` gave a pKa of 7.67.

For `COc1cc(NS(C)(=O)=O)ccc1Nc1c2ccccc2nc2cc(NC(C)=O)ccc12`, the pKa amounted to 7.77. The compound `CCCC(=O)Nc1ccc2c(Nc3ccc(NS(C)(=O)=O)cc3)c3ccccc3nc2c1` yielded a pKa of 7.37.

Turning to `COc1cc(NS(C)(=O)=O)ccc1N=c1c2ccccc2[nH]c2ccc(C(C)(C)C)cc12`, the pKa is 7.38. In turn, `Cc1cc(NS(C)(=O)=O)ccc1Nc1c2ccccc2nc2c(C)cccc12` displayed a pKa of 7.39. The result for `CCCNc1ccc(Nc2c3ccccc3nc3ccccc23)cc1` reads 8.24; that for `CS(=O)(=O)Nc1ccc(NS(C)(=O)=O)c(Nc2c3ccccc3nc3ccccc23)c1`, 6.02; that for `COc1cc(NS(C)(=O)=O)ccc1Nc1c2cccc(OC)c2nc2c(OC)cccc12`, 6.9. Regarding `COc1cc(NS(C)(=O)=O)ccc1Nc1c2ccc(I)cc2nc2ccc(N)cc12`, the pKa is 6.72. Compound `CS(=O)(=O)Nc1ccc(Nc2c3ccccc3nc3cc(F)ccc23)cc1` came in with a pKa of 6.77. Regarding `COc1cc(NS(C)(=O)=O)ccc1Nc1c2ccc(Cl)cc2nc2c(OC)cccc12`, the pKa was found to be 6.79.

The compound `COc1cc(NS(C)(=O)=O)ccc1Nc1c2ccc(N=[N+]=[N-])cc2nc2c(C)cccc12` had a pKa of 7.22. With `COc1cc(NS(C)(=O)=O)ccc1Nc1c2ccccc2nc2cccc([N+](=O)[O-])c12`, the pKa was determined as 4.98.

`COc1cc(NS(C)(=O)=O)ccc1Nc1c2ccc(N)cc2nc2c(C)cccc12` returned a pKa of 9.88. `COc1cc(NS(C)(=O)=O)ccc1Nc1c2ccccc2nc2c(C)c(C)ccc12` returned a pKa of 7.65.

The compound `CN(C)/N=N/c1ccc2c(Nc3ccc(NS(C)(=O)=O)cc3)c3ccccc3nc2c1` showed a pKa of 7.13.

Take `COc1cc(NS(C)(=O)=O)ccc1Nc1c2ccccc2nc2cc(Br)c(N)cc12`: the pKa came to 7.01. Turning to `COc1cc(NS(C)(=O)=O)ccc1Nc1c2ccccc2nc2cc(C(C)(C)C)ccc12`, the pKa is 7.64. The figure for `COc1ccc2c(Nc3ccc(NS(C)(=O)=O)cc3)c3ccc(Cl)cc3nc2c1` is 6.91; for `COc1cc(NS(C)(=O)=O)ccc1Nc1c2ccc([N+](=O)[O-])cc2nc2c(OC)cccc12` it is 5.68. As for `O=[N+]([O-])c1ccc2nc3ccccc3c(Nc3ccccc3)c2c1`, the pKa is 6.26. In turn, `COc1cc(NS(C)(=O)=O)ccc1Nc1c2ccccc2nc2c(OCC(O)CO)cccc12` (stereo in doubt; 303) had a pKa of 7. Regarding `COc1cc(NS(C)(=O)=O)ccc1Nc1c2ccccc2nc2cc(N=[N+]=[N-])ccc12`, the pKa came to 7.26. In the case of `CN(C)c1ccc2nc3ccccc3c(Nc3ccc(NS(C)(=O)=O)cc3)c2c1`, the pKa was 7.27.

In the case of `COc1cc(NS(C)(=O)=O)ccc1Nc1c2ccccc2nc2cc(CCC(N)=O)ccc12`, the pKa turned out to be 7.5.

Compound `COc1cc(NS(C)(=O)=O)ccc1Nc1c2ccccc2nc2cc(C(F)(F)F)c(N)cc12` registered a pKa of 6.56. The figure for `COc1cc(NS(C)(=O)=O)ccc1Nc1c2ccccc2nc2cccnc12` is 7.19. As for `Cc1cc(NS(C)(=O)=O)ccc1Nc1c2ccccc2nc2ccccc12`, the pKa was 7.36. Turning to `COc1cc(NS(C)(=O)=O)ccc1Nc1c2ccccc2nc2cc(N)ccc12`, the pKa was 7.36. Turning to `COc1cc(NS(C)(=O)=O)ccc1Nc1c2ccc(Br)cc2nc2cc(Br)ccc12`, the pKa is 6.17.

Take `CNc1ccc2c(Nc3ccc(NS(C)(=O)=O)cc3OC)c3ccccc3nc2c1`: the pKa came out at 9.5.

`COc1cc(NS(C)(=O)=O)ccc1Nc1c2ccccc2nc2ccncc12` registered a pKa of 5.94. Take `Cc1ccc2c(Nc3ccc(NS(C)(=O)=O)cc3)c3ccc([N+](=O)[O-])cc3nc2c1`: the pKa is 5.81. Turning to `CCCCOc1cccc2c(Nc3ccc(NS(C)(=O)=O)cc3OC)c3ccccc3nc12`, the pKa was 7.34.
